The values below come from paper PMC6934184, “Selective DNA-PKcs inhibition extends the therapeutic index of localized radiotherapy and chemotherapy” (The Journal of Clinical Investigation, 2019).

The assay concerns the target T1, IKBKE (IKK epsilon) (Homo sapiens, UniProt Q14164).
T1 construct: purchased Thermo Fisher Scientific (Life Technologies) SelectScreen
Description: SelectScreen Z'LYTE. It counts as biochemical. In outline: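 Percent values come from Thermo SelectScreen profiling of NU5455, combining activity and binding assays. CSF1R was run in Z'LYTE format at Km app ATP, and CAMK1 in Adapta format with ATP listed at 10.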

T1 sequence (Q14164 whole entry): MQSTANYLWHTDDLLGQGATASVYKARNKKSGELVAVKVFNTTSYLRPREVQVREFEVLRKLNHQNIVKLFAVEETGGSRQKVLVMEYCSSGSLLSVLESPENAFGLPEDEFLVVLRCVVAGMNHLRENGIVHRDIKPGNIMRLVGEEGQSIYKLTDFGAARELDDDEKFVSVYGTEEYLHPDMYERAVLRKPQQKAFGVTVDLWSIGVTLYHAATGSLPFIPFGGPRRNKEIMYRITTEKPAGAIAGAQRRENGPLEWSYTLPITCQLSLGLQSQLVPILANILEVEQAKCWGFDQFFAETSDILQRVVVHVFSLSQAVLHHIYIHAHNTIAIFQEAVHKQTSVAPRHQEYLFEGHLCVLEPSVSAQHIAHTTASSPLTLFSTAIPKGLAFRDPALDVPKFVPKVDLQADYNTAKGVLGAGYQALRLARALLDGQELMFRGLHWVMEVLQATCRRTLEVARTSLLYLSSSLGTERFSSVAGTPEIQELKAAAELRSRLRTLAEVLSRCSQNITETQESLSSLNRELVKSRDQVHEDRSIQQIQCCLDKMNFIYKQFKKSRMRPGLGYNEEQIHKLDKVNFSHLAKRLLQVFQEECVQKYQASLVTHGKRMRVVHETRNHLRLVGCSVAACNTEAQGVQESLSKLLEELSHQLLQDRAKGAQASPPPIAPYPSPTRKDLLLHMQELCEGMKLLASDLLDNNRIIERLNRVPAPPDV

Usually inhibition stands for the change of the read-out against control, counted positive when it falls. As for `CN(C(=O)CN1CCOCC1)c1ccc2sc3c(-c4cccc5c(=O)cc(N6CC7CCC(C6)O7)oc45)cccc3c2c1` [NU5455], the inhibition at 1 µM is -0.7%.
